Data on 15 compounds can be found in patent US10757937B2, “Sulfonamides that activate ABA receptors” (The Regents of the University of California, priority 2014, dated 2020).

A value given as a limit tells only on which side of the number the result lay.

What all share (assay): receptor-mediated PP2C (HAB1) inhibition in vitro assay
Holding throughout (type): biochemical

For one test, the target named is T1, PYL6 (Arabidopsis thaliana, UniProt Q8S8E3).
T1 construct: 6X-His; made in house; host or cells: E. coli BL21[DE3]pLysS
T1 sequence (Q8S8E3 1-215): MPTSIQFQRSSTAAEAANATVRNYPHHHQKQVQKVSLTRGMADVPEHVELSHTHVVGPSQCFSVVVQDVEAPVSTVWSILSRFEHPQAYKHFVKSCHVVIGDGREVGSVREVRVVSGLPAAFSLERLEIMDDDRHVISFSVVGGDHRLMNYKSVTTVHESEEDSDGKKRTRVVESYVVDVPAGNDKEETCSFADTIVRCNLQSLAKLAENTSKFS
T1 sequence (Q9CAJ0 23-511 partner): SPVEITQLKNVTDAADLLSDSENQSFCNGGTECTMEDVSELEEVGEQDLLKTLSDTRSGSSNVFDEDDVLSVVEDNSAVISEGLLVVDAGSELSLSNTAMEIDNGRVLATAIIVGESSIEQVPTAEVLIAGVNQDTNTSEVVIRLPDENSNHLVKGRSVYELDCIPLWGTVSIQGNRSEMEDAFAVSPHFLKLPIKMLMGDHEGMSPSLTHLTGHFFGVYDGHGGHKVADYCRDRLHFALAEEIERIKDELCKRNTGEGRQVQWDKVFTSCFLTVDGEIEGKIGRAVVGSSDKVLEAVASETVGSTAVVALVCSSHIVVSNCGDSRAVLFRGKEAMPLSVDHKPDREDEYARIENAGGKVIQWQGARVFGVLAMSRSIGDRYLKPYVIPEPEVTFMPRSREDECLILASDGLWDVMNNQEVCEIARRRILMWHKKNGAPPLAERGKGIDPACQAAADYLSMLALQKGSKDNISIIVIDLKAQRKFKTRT
The conditions noted are these: for IC50: Table VII, read-out: PP2C Dose Curves PYL6 (IC50). In a few lines: (§1)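 Fluorogenic readout: 4-methylumbelliferyl-phosphate hydrolysis by 50 nM GST-HAB1 plus 2:1 His-receptor; Tris-OAc pH 7.9, NaCl, 1 mM MnCl2, β-ME. Compounds at 25 μM or 50 uM single dose; IC50 from dose curves for selected compounds.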

For a further test, the target named is T2, PYL8 (Arabidopsis thaliana, UniProt Q9FGM1).
T2 construct: 6X-His; made in house; host or cells: E. coli BL21[DE3]pLysS
T2 sequence (Q9FGM1 1-188): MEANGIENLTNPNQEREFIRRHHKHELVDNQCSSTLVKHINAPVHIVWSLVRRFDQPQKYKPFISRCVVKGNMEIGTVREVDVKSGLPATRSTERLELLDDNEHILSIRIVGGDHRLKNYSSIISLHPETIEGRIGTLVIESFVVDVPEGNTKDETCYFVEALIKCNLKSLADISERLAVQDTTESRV
T2 sequence (Q9CAJ0 23-511 partner): T1 sequence (Q9CAJ0 23-511 partner)
The conditions noted are these: for IC50: Table VII, read-out: PP2C Dose Curves PYL8 (IC50); for remaining activity at 25 µM: compound at 25 μM, control without agonist = 100%. In a few lines: as §1

Another test addresses T3, PYL9 (Arabidopsis thaliana, UniProt Q84MC7).
T3 construct: 6X-His; made in house; host or cells: E. coli BL21[DE3]pLysS
T3 sequence (Q84MC7 1-187): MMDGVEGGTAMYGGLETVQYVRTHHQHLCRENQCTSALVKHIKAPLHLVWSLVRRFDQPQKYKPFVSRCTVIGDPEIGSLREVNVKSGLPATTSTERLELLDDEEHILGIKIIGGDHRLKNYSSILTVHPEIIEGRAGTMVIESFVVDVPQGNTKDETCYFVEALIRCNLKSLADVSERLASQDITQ
T3 sequence (Q9CAJ0 23-511 partner): T1 sequence (Q9CAJ0 23-511 partner)
The conditions noted are these: for IC50: Table VII, read-out: PP2C Dose Curves PYL9 (IC50); for remaining activity at 25 µM: compound at 25 μM, control without agonist = 100%. The procedure, abridged:
as §1

A further test concerns the target T4, PYL11 (Arabidopsis thaliana, UniProt Q9FJ50).
T4 construct: made in house; host or cells: E. coli BL21[DE3]pLysS
T4 sequence (Q9FJ50 1-161): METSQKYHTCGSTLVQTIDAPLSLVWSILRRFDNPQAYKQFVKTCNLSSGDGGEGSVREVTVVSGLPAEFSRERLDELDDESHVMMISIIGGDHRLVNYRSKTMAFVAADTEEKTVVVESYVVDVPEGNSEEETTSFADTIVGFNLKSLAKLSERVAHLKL
T4 sequence (Q9CAJ0 23-511 partner): T1 sequence (Q9CAJ0 23-511 partner)
The conditions noted are these: for IC50: Table VII, read-out: PP2C Dose Curves PYL11 (IC50). The procedure, abridged: (§2)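 Compounds, tested at 25 μM or 50 uM with ABA at 10 uM, were incubated with recombinant receptor and 50 nM GST-HAB1 (2:1 ratio) in MnCl2-containing Tris-OAc buffer, pH 7.9. Phosphatase activity was followed by 4-methylumbelliferyl-phosphate fluorescence.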

The target in another test is T5, PYL4 (Arabidopsis thaliana, UniProt O80920).
T5 construct: 6X-His; made in house; host or cells: E. coli BL21[DE3]pLysS
T5 sequence (O80920 1-207): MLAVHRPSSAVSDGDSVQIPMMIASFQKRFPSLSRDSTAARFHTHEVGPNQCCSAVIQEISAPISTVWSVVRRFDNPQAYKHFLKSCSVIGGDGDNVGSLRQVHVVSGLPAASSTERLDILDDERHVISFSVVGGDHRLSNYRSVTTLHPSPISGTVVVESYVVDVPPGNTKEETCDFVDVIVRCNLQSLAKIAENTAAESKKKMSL
T5 sequence (Q9CAJ0 23-511 partner): T1 sequence (Q9CAJ0 23-511 partner)
The conditions noted are these: for remaining activity at 25 µM: compound at 25 μM, control without agonist = 100%; for IC50: Table VII, read-out: PP2C Dose Curves PYL4 (IC50). The procedure, abridged: as §2

The target in the next test is T6, PYL10 (Arabidopsis thaliana, UniProt Q8H1R0).
T6 construct: 6X-His; made in house; host or cells: E. coli BL21[DE3]pLysS
T6 sequence (Q8H1R0 1-183): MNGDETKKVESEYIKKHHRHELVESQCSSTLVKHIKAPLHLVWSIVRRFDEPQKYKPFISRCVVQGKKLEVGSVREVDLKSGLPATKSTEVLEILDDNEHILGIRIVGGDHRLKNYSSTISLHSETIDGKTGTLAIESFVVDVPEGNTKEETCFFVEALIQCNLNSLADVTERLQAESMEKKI
T6 sequence (Q9CAJ0 23-511 partner): T1 sequence (Q9CAJ0 23-511 partner)
The conditions noted are these: for IC50: Table VII, read-out: PP2C Dose Curves PYL10 (IC50). In a few lines: as §1

Consider `CC1=CC(=O)CC(C)(C)[C@@]1(O)/C=C/C(C)=C\C(=O)O` [ABA, Abscisic acid, reference compound], for which the “PP2C Activity PYL6” value on PYL6 (ABA (10 μM)) worked out at 10.9. In addition, the “PP2C Activity PYL8” value on PYL8 (ABA (10 μM)) came to 7.0. Also, the “PP2C Activity PYL9” value at PYL9 (ABA (10 μM)) is given as 6.3. Further, at PYL11 (ABA (10 μM)), the “PP2C Activity PYL11” value was 5.7. Also, the “PP2C Activity PYL4” value on PYL4 (ABA (10 μM)) is 10.2. Besides, on PYL10 (ABA (10 μM)), the “PP2C Activity PYL10” value amounted to 13.8.

For `CC(C)(C(=O)NS(=O)(=O)Cc1ccc([N+](=O)[O-])cc1)c1ccccc1` [Compound 3], the IC50 at PYL6 came out at 45.5 µM; on PYL8, 8.58 µM; on PYL9, 3 µM; at PYL11 it was 1.94 µM. In addition, the remaining activity at 25 µM at PYL8 is 35%; at PYL9, 18%; on PYL4, 90%.

As to `CC(C)(C(=O)NS(=O)(=O)Cc1ccc(C#N)cc1)c1ccc(Cl)cc1` [Compound 6], the IC50 on PYL6 was over 50 µM; on PYL8, 26.3 µM; at PYL9 it was 8.96 µM; at PYL11, 4.16 µM; on PYL10 it was over 50 µM. The remaining activity at 25 µM on PYL8 was determined as 52%; at PYL9, 32%; on PYL4 it was 90%.

As for `CC(C)(C(=O)NS(=O)(=O)Cc1ccc(C#N)cc1)c1ccc(Cl)c(Cl)c1` [Compound 7], the IC50 was over 50 µM at PYL6, 40 µM on PYL8, 18.5 µM on PYL9 and 13.9 µM on PYL11. In addition, the remaining activity at 25 µM on PYL8 stood at 54%; on PYL9 it was 38%; at PYL4, 90%.

For `CC(C)(C(=O)NS(=O)(=O)Cc1ccc(C#N)cc1)c1ccc(F)cc1` [Compound 13], the IC50 at PYL6 is 18.9 µM; on PYL8 it was 4.45 µM; on PYL9, 1.62 µM; at PYL11, 2.48 µM; at PYL10 it was over 50 µM. In addition, the figures for the remaining activity at 25 µM on PYL8, at PYL9 and on PYL4 were 32%, 17% and 98%, respectively.

`CC(C)(C(=O)NS(=O)(=O)Cc1ccc(C#N)cc1)c1cccc(C#N)c1` [Compound 18]: the half-inhibitory concentration (IC50) is 12.6 µM on PYL6; 18.6 µM at PYL8; 8.29 µM at PYL9; 14.9 µM on PYL11; over 50 µM at PYL4; 31.5 µM on PYL10. Besides, the remaining activity at 25 µM amounted to 52% at PYL8, 34% on PYL9 and 91% at PYL4.

Take `CCC(CC)(C(=O)NS(=O)(=O)Cc1ccc([N+](=O)[O-])cc1)c1ccccc1` [Compound 19]: the IC50 at PYL6 was 57.1 µM; at PYL8, 9.65 µM; on PYL9, 3.9 µM; at PYL11, 2.44 µM; at PYL4, over 50 µM; at PYL10, 50.8 µM. The values for the remaining activity at 25 µM at PYL8, on PYL9 and on PYL4 were 36%, 15% and 86%, respectively.

On to `CC(C)(C(=O)NS(=O)(=O)Cc1ccc(C#N)cc1)c1ccccc1` [Compound 23], for which the IC50 at PYL6 was over 50 µM; at PYL8, 48.9 µM; on PYL9 it was 1.88 µM; at PYL11, 7.84 µM; on PYL10, over 50 µM.

Turning to `N#Cc1ccc(CS(=O)(=O)NC(=O)C2(c3ccc(F)cc3)CCCC2)cc1` [Compound 24], the half-inhibitory concentration (IC50) at PYL6 is over 50 µM; at PYL8, 6.38 µM; on PYL9, 0.6 µM; on PYL11 it was 4.09 µM; at PYL4, over 50 µM; at PYL10 it was 14.8 µM. Moreover, the remaining activity at 25 µM worked out at 21% on PYL8, 10% at PYL9 and 92% on PYL4. On PYL9 (five- and six-membered rings at alpha carbon), the “PYL9 agonist potency and selectivity” value is “potent and relatively selective PYL9 agonists”.

Take `N#Cc1ccc(CS(=O)(=O)NC(=O)C2(c3ccccc3F)CCCC2)cc1` [Compound 25]: the IC50 was 12.6 µM at PYL8, 6.69 µM on PYL9, 12.7 µM on PYL11 and over 50 µM on PYL10. For the same compound, the remaining activity at 25 µM was determined as 37% on PYL8, 21% on PYL9 and 94% at PYL4.

`N#Cc1ccc(CS(=O)(=O)NC(=O)C2(c3cccc(F)c3)CCCC2)cc1` [Compound 26]: the IC50 on PYL8 is 11.5 µM; on PYL9 it was 7.11 µM; at PYL11, 7.52 µM; on PYL10, 41.6 µM. In addition, the remaining activity at 25 µM at PYL8 is 33%; at PYL9 it was 18%; at PYL4, 99%.

For the compound `N#Cc1ccc(CS(=O)(=O)NC(=O)C2(c3ccccc3)CCC2)cc1` [Compound 29], the half-inhibitory concentration (IC50) at PYL6 is over 50 µM; on PYL8, 3.36 µM; on PYL9, 1.27 µM; at PYL11 it was 1.77 µM; on PYL10 it was over 50 µM. The remaining activity at 25 µM was determined as 28% at PYL8, 14% on PYL9 and 96% at PYL4.

Turning to `N#Cc1ccc(CS(=O)(=O)NC(=O)C2(c3ccc(Br)cc3)CC2)cc1` [Compound 30], the IC50 was over 50 µM on PYL6, over 50 µM on PYL8, over 50 µM on PYL9 and 4.63 µM at PYL11. The remaining activity at 25 µM on PYL8 amounted to 82%; at PYL9, 69%; at PYL4, 90%.

As to `N#Cc1ccc(CS(=O)(=O)NC(=O)C2(c3ccc(F)cc3)CCC2)cc1` [Compound 32], the concentration for half-maximal inhibition (IC50) on PYL6 was over 50 µM; on PYL8, 3.23 µM; on PYL9, 1.4 µM; at PYL11, 2.25 µM; on PYL10 it was over 50 µM. Also, the remaining activity at 25 µM on PYL8 was 24%; on PYL9, 12%; on PYL4 it was 92%.

As to `Cc1cccc(C2(C(=O)NS(=O)(=O)Cc3ccc(C#N)cc3)CCCC2)c1` [Compound 43], the 50% inhibitory concentration (IC50) at PYL8 was 22.7 µM; at PYL9, 28.2 µM; on PYL11, over 50 µM; at PYL10 it was over 50 µM. Moreover, the remaining activity at 25 µM came out at 41% on PYL8, 46% on PYL9 and 95% on PYL4.
